Our source for the IC50 and inhibition values is patent US20230265104A1, “NOVEL HETEROCYCLIC COMPOUNDS” (PRISM BIOLAB CO., LTD., priority 2020, published 2023).

As usually defined, the pIC50 is the negative decadic logarithm of the IC50, by convention in mol/L. Read a high pIC50 as a low IC50. The inhibition is the drop in the measured response relative to a control, in per cent.

This test concerns PANC-1 (human pancreatic cancer-derived cell line). Description: MTS assay on Panc-1 (human pancreas carcinoma cell line). It counts as cell-based. The settings on record: 144 h; for pIC50: PANC-1, MTS method, cell survival 6 days after exposure, 4-parameter logistic fit; for inhibition at 0.3125 µM: read-out: Growth inhibition (%) 0.3125 μM; for inhibition at 10 µM: read-out: Growth inhibition (%) 10 μM; for inhibition at 30 µM: read-out: Growth inhibition (%) 30 μM. Here is the method:
Experimental Example: MTS Assay on Panc-1 (Human Pancreas Carcinoma Cell Line) cell line name: PANC-1 derived from: human pancreas glandular cancer purchased from: ATCC product code: CRL-1469 proliferation medium: D-MEM+10% FBS culture environment: 37° C., 5% CO2 seeding density: 5.0×10^5 cells/25 cm^2 solvent control substance: DMSO (HYBRI-MAX®, Sigma-Aldrich Corp.) test substance: Example compound (ID-1-ID-13) A DMSO solution of the test substance was prepared by serially diluting (common ratio 2) each test substance with DMSO.
A solvent control substance sample and a test substance sample were exposed to a human pancreatic cancer-derived cell line (PANC-1), and the survival rate of the cell 6 days later was measured by the MTS method. The measurement was performed 3 times and the average thereof was adopted. The survival rate of the cell in each test substance sample was calculated by the following formula 1 with the value at exposure of the solvent control substance sample as 100% survival rate. […]
survival rate (%)=100×absorbance of each test substance sample/absorbance of solvent control substance sample formula 1 Normalized values calculated by the following formula 2 from the absorbances of each sample at 492 nm and 630 nm and the absorbances of the blank were used as the absorbances in the above-mentioned formula 1. […]
normalized value (ABS492 nm-630 nm)=(ABSsa 492 nm-ABSsa 630 nm)−(ABSbl 492 nm-ABSbl 630 nm) ABSsa 492: absorbance of each sample at wavelength 492 nm ABSsa 630: absorbance of each sample at wavelength 630 nm ABSbl 492: absorbance of blank corresponding to each sample at wavelength 492 nm ABSbl 630: absorbance of blank corresponding to each sample at wavelength 630 nm formula 2 […]
The analysis was performed by using nplr package on R (The R Foundation for Statistical Computing) and estimating the logistic regression curve (4-parameter).

pIC50: −log10 of the molar value.

Consider `CC(C)C[C@H]1ON(C(=O)/C=C/c2nc3cc(O)ccc3s2)[C@H]2CN([C@H]3CCN(CCCCO)C3)C(=O)[C@H](CC(C)(C)C)N2C1=O` [ID-7, (3R,6S,9aS)-1-((E)-3-(5-hydroxybenzo[d]thiazol-2-yl)acryloyl)-8-((S)-1-(4-hydroxybutyl)pyrrolidin-3-yl)-3-isobutyl-6-neopentyltetrahydropyrazino[2,1-c][1,2,4]oxadiazine-4,7(3H,6H)-dione], for which the negative logarithm of the IC50 (pIC50) was 7.15.

`CC(C)C[C@H]1ON(C(=O)/C=C/c2nc(C#CCCCCCO)cs2)[C@H]2CN(C3CN(CCCCO)C3)C(=O)[C@H](CC(C)(C)C)N2C1=O` [ID-91, (3R,6S,9aS)-8-(1-(4-hydroxybutyl)azetidin-3-yl)-1-((E)-3-(4-(7-hydroxyhept-1-yn-1-yl)thiazol-2-yl)acryloyl)-3-isobutyl-6-neopentyltetrahydropyrazino[2,1-c][1,2,4]oxadiazine-4,7(3H,6H)-dione] had a pIC50 of 6.92.

The compound `CC(C)C[C@H]1ON(C(=O)/C=C/c2ccccn2)[C@H]2CN(C3CCC(N)CC3)C(=O)[C@H](CC(C)C)N2C1=O` (stereo partly drawn) [ID-68, (3R,6S,9aS)-8-(4-aminocyclohexyl)-3,6-diisobutyl-1-((E)-3-(pyridin-2-yl)acryloyl)tetrahydropyrazino[2,1-c][1,2,4]oxadiazine-4,7(3H,6H)-dione] gave a pIC50 of 5.55.

With `CC(C)C[C@H]1ON(C(=O)/C=C/c2nc(-c3cccnc3)cs2)[C@H]2CN([C@H]3CCN(CCCCO)C3)C(=O)[C@H](CC(C)(C)C)N2C1=O` [ID-82, (3R,6S,9aS)-8-((S)-1-(4-hydroxybutyl)pyrrolidin-3-yl)-3-isobutyl-6-neopentyl-1-((E)-3-(4-(pyridin-3-yl)thiazol-2-yl)acryloyl)tetrahydropyrazino[2,1-c][1,2,4]oxadiazine-4,7 (3H, 6H)-dione], the inhibition at 0.3125 µM (PANC-1, MTS, 6 days) was found to be 48.6%.

Compound `CC(C)C[C@H]1ON(C(=O)/C=C/c2nc3ccccc3s2)[C@H]2CN(C3CCN(C(=O)c4ncc(F)cn4)CC3)C(=O)[C@H](CC(C)C)N2C1=O` [ID-50, (3R,6S,9aS)-1-((E)-3-(benzo[d]thiazol-2-yl)acryloyl)-8-(1-(5-fluoropyrimidine-2-carbonyl)piperidin-4-yl)-3,6-diisobutyltetrahydropyrazino[2,1-c][1,2,4]oxadiazine-4,7(3H,6H)-dione] had a negative-log IC50 (pIC50) of 6.23. Also, for the setting “PANC-1, MTS, 6 days”, the inhibition at 10 µM amounted to 101%.

Compound `CC(C)C[C@H]1ON(C(=O)/C=C/c2nc(C#CCCCCCO)cs2)[C@H]2CN([C@@H]3CCN(CCCCO)C3)C(=O)[C@H](CC(C)(C)C)N2C1=O` [ID-13, (3R,6S,9aS)-8-((R)-1-(4-hydroxybutyl)pyrrolidin-3-yl)-1-((E)-3-(4-(7-hydroxyhept-1-yn-1-yl)thiazol-2-yl)acryloyl)-3-isobutyl-6-neopentyltetrahydropyrazino[2,1-c][1,2,4]oxadiazine-4,7(3H,6H)-dione] had a negative-log IC50 (pIC50) of 6.85.

`CC(C)C[C@H]1ON(C(=O)/C=C/c2nccs2)[C@H]2CN(CCC(N)=O)C(=O)[C@H](CC(C)C)N2C1=O` [ID-17, 3-((3R,6S,9aS)-3,6-diisobutyl-4,7-dioxo-1-((E)-3-(thiazol-2-yl)acryloyl)hexahydropyrazino[2,1-c][1,2,4]oxadiazin-8(1H)-yl)propanamide] gave a negative-log IC50 (pIC50) of 4.94. In addition, where the note is “PANC-1, MTS, 6 days”, the inhibition at 30 µM turned out to be 100%.

The compound `CC(C)C[C@H]1ON(C(=O)/C=C/c2ccccn2)[C@H]2CN(C3CCN(C4CCCCC4)CC3)C(=O)[C@H](CC(C)C)N2C1=O` [ID-63, (3R,6S,9aS)-8-(1-cyclohexylpiperidin-4-yl)-3,6-diisobutyl-1-((E)-3-(pyridin-2-yl)acryloyl)tetrahydropyrazino[2,1-c][1,2,4]oxadiazine-4,7(3H,6H)-dione] gave a pIC50 of 5.85.

As to `CC(C)C[C@H]1ON(C(=O)/C=C/c2nc3ccccc3s2)[C@H]2CN(C3CCN(CCCO)CC3)C(=O)[C@H](CC(C)(C)C)N2C1=O` [ID-79, (3R,6S,9aS)-1-((E)-3-(benzo[d]thiazol-2-yl)acryloyl)-8-(1-(3-hydroxypropyl)piperidin-4-yl)-3-isobutyl-6-neopentyltetrahydropyrazino[2,1-c][1,2,4]oxadiazine-4,7(3H,6H)-dione], the inhibition at 0.3125 µM (PANC-1, MTS, 6 days) was determined as 72.2%.

Take `CC(C)C[C@H]1ON(C(=O)/C=C/c2csc(N3CCOCC3)n2)[C@H]2CN(C3CCN(C)CC3)C(=O)[C@H](CC(C)C)N2C1=O` [ID-56, (3R,6S,9aS)-3,6-diisobutyl-8-(1-methylpiperidin-4-yl)-1-((E)-3-(2-morpholinothiazol-4-yl)acryloyl)tetrahydropyrazino[2,1-c][1,2,4]oxadiazine-4,7 (3H, 6H)-dione]: where the note is “PANC-1, MTS, 6 days”, the inhibition at 10 µM is 95.3%.

Consider `CC(C)C[C@H]1ON(C(=O)/C=C/c2ccccn2)[C@H]2CN(C3CCN(C(=O)c4ccccc4)CC3)C(=O)[C@H](CC(C)C)N2C1=O` [ID-15, (3R,6S,9aS)-8-(1-benzoylpiperidin-4-yl)-3,6-diisobutyl-1-((E)-3-(pyridin-2-yl)acryloyl)tetrahydropyrazino[2,1-c][1,2,4]oxadiazine-4,7(3H,6H)-dione], for which the negative logarithm of the IC50 (pIC50) is 5.24. Moreover, the inhibition at 30 µM (PANC-1, MTS, 6 days) came out at 99.9%.

`CC(C)C[C@H]1ON(C(=O)/C=C/c2nc(C#CCCCCO)cs2)[C@H]2CN([C@@H]3CCN(CCCCO)C3)C(=O)[C@H](CC(C)(C)C)N2C1=O` [ID-11, (3R,6S,9aS)-8-((R)-1-(4-hydroxybutyl)pyrrolidin-3-yl)-1-((E)-3-(4-(6-hydroxyhex-1-yn-1-yl)thiazol-2-yl)acryloyl)-3-isobutyl-6-neopentyltetrahydropyrazino[2,1-c][1,2,4]oxadiazine-4,7(3H,6H)-dione] showed a pIC50 of 6.85.

Compound `CC(C)C[C@H]1ON(C(=O)/C=C/c2ccccn2)[C@H]2CN(C3CC4CCC(C3)N4C)C(=O)[C@H](CC(C)C)N2C1=O` (stereo partly drawn) [ID-70, (3R,6S,9aS)-3,6-diisobutyl-8-(8-methyl-8-azabicyclo[3.2.1]octan-3-yl)-1-((E)-3-(pyridin-2-yl)acryloyl)tetrahydropyrazino[2,1-c][1,2,4]oxadiazine-4,7(3H,6H)-dione] had a negative logarithm of the IC50 (pIC50) of 5.60.

Take `CC(C)C[C@H]1ON(C(=O)/C=C/c2ccc3cccnc3n2)[C@H]2CN(CCC(N)=O)C(=O)[C@H](CC(C)C)N2C1=O` [ID-31, 3-((3R,6S,9aS)-1-((E)-3-(1,8-naphthyridin-2-yl)acryloyl)-3,6-diisobutyl-4,7-dioxohexahydropyrazino[2,1-c][1,2,4]oxadiazin-8(1H)-yl)propanamide]: the pIC50 is 5.57. Also, the inhibition at 10 µM (PANC-1, MTS, 6 days) was found to be 99.3%.

Consider `CC(C)C[C@H]1ON(C(=O)/C=C/c2nc3cc(F)ccc3s2)[C@H]2CN(C3CCN(C)CC3)C(=O)[C@H](CC(C)C)N2C1=O` [ID-52, (3R,6S,9aS)-1-((E)-3-(5-fluorobenzo[d]thiazol-2-yl)acryloyl)-3,6-diisobutyl-8-(1-methylpiperidin-4-yl)tetrahydropyrazino[2,1-c][1,2,4.]oxadiazine-4,7(3H,6H)-dione], for which the negative-log IC50 (pIC50) was 6.32. Moreover, where the note is “PANC-1, MTS, 6 days”, the inhibition at 10 µM was 101%.

For `CC(C)C[C@H]1ON(C(=O)/C=C/c2ccc(C(F)(F)F)cn2)[C@H]2CN(C3CCN(C)CC3)C(=O)[C@H](CC(C)C)N2C1=O` [ID-71, (3R,6S,9aS)-3,6-diisobutyl-8-(1-methylpiperidin-4-yl)-1-((E)-3-(5-(trifluoromethyl)pyridin-2-yl)acryloyl)tetrahydropyrazino[2,1-c][1,2,4]oxadiazine-4,7(3H,6H)-dione], the inhibition at 2.5 µM (PANC-1, MTS, 6 days, 2.5 μM, read-out: Growth inhibition (%) 2.5 μM) was determined as 97.3%.

`CC(C)C[C@H]1ON(C(=O)/C=C/c2ccccn2)[C@H]2CN(C3CCCN(C)CC3)C(=O)[C@H](CC(C)C)N2C1=O` (stereo partly drawn) [ID-67, (3R,6S,9aS)-3,6-diisobutyl-8-(1-methylazepan-4-yl)-1-((E)-3-(pyridin-2-yl)acryloyl)tetrahydropyrazino[2,1-c][1,2,4]oxadiazine-4,7(3H,6H)-dione] showed a pIC50 of 5.48. Where the note is “PANC-1, MTS, 6 days”, the inhibition at 10 µM was determined as 100%.

`CC(C)C[C@H]1ON(C(=O)/C=C/c2nc3ccccc3s2)[C@H]2CN(C3CN(CCCCO)C3)C(=O)[C@H](CC(C)(C)C)N2C1=O` [ID-84, (3R,6S,9aS)-1-((E)-3-(benzo[d]thiazol-2-yl)acryloyl)-8-(1-(4-hydroxybutyl)azetidin-3-yl)-3-isobutyl-6-neopentyltetrahydropyrazino[2,1-c][1,2,4]oxadiazine-4,7(3H,6H)-dione] had a pIC50 of 6.96. Besides, for the setting “PANC-1, MTS, 6 days”, the inhibition at 0.3125 µM is 88.9%.
